Measured values as given in PubChem BioAssay AID1963872 (Molecular Pharmacology Branch, DTP, NCI, 2024).

Tested on: KRAS patient-derived spheroids with HUVEC/MSC, viability
Assay: Anticancer human tumor 519858-162-T-J1-PDC patient-derived colon adenocarcinoma cell line growth inhibition [KRAS2]
Details: for IC50: curve of first compound; for viability, T/C: stronger effect = lower value
How it was run: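 KRAS-mutant tumor cells were grown as spheroids with HUVEC endothelial cells and human MSCs as stroma. Targeted agents were tested alone and with KRAS pathway inhibitors. Doses started at or near clinical Cmax, or 10 microM, descending half-log.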

[1] = second compound 0.1 µM, first compound 0.000316 µM
[2] = second compound 0.1 µM, first compound 0.001 µM
[3] = second compound 0.1 µM, first compound 0.00316 µM
[4] = second compound 0.1 µM, first compound 0.01 µM
[5] = second compound 0.1 µM, first compound 0.0316 µM
[6] = second compound 0.1 µM, first compound 0.1 µM
[7] = second compound 0.316 µM, first compound 0.000316 µM
[8] = second compound 0.316 µM, first compound 0.001 µM
[9] = second compound 0.316 µM, first compound 0.00316 µM
[10] = second compound 0.316 µM, first compound 0.01 µM
[11] = second compound 0.316 µM, first compound 0.0316 µM
[12] = second compound 0.316 µM, first compound 0.1 µM
[13] = second compound 1 µM, first compound 0.000316 µM
[14] = second compound 1 µM, first compound 0.001 µM
[15] = second compound 1 µM, first compound 0.00316 µM
[16] = second compound 1 µM, first compound 0.01 µM
[17] = second compound 1 µM, first compound 0.0316 µM
[18] = second compound 1 µM, first compound 0.1 µM
[19] = second compound 3.16 µM, first compound 0.000316 µM
[20] = second compound 3.16 µM, first compound 0.001 µM
[21] = second compound 3.16 µM, first compound 0.00316 µM
[22] = second compound 3.16 µM, first compound 0.01 µM
[23] = second compound 3.16 µM, first compound 0.0316 µM
[24] = second compound 3.16 µM, first compound 0.1 µM
[25] = second compound 10 µM, first compound 0.000316 µM
[26] = second compound 10 µM, first compound 0.001 µM
[27] = second compound 10 µM, first compound 0.00316 µM
[28] = second compound 10 µM, first compound 0.01 µM
[29] = second compound 10 µM, first compound 0.0316 µM
[30] = second compound 10 µM, first compound 0.1 µM
[31] = second compound 0.0316 µM, first compound 0.0316 µM
[32] = second compound 0.0316 µM, first compound 0.1 µM
[33] = second compound 0.0316 µM, first compound 0.316 µM
[34] = second compound 0.0316 µM, first compound 1 µM
[35] = second compound 0.0316 µM, first compound 3.16 µM
[36] = second compound 0.0316 µM, first compound 10 µM
[37] = second compound 0.1 µM, first compound 0.316 µM
[38] = second compound 0.1 µM, first compound 1 µM
[39] = second compound 0.1 µM, first compound 3.16 µM
[40] = second compound 0.1 µM, first compound 10 µM
[41] = second compound 0.316 µM, first compound 0.316 µM
[42] = second compound 0.316 µM, first compound 1 µM
[43] = second compound 0.316 µM, first compound 3.16 µM
[44] = second compound 0.316 µM, first compound 10 µM
[45] = second compound 1 µM, first compound 0.316 µM
[46] = second compound 1 µM, first compound 1 µM
[47] = second compound 1 µM, first compound 3.16 µM
[48] = second compound 1 µM, first compound 10 µM
[49] = second compound 3.16 µM, first compound 0.316 µM
[50] = second compound 3.16 µM, first compound 1 µM
[51] = second compound 3.16 µM, first compound 3.16 µM
[52] = second compound 3.16 µM, first compound 10 µM
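Also: compound exposure lasted seven days before readout.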
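For viability, T/C in this document: 100% = DMSO vehicle control viability.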

## Cn1ncnc1[C@H]1c2n[nH]c(=O)c3cc(F)cc(c23)N[C@@H]1c1ccc(F)cc1 + CNCc1ccccc1-c1csc(C(C)Nc2nc(C)nc3cc(OC)c(OC)cc23)c1
Second compound 0.1 µM
  IC50: > 100 nM
Second compound 0.316 µM
  IC50: > 100 nM
Second compound 1 µM
  IC50: > 100 nM
Second compound 3.16 µM
  IC50: 71.1 nM
Second compound 10 µM
  IC50: < 0.316 nM
[1]
  viability, T/C: 82.2%
[2]
  viability, T/C: 95.5%
[3]
  viability, T/C: 96.5%
[4]
  viability, T/C: 71.5%
[5]
  viability, T/C: 95.4%
[6]
  viability, T/C: 98.6%
[7]
  viability, T/C: 86.3%
[8]
  viability, T/C: 94.7%
[9]
  viability, T/C: 101%
[10]
  viability, T/C: 112%
[11]
  viability, T/C: 103%
[12]
  viability, T/C: 89.7%
[13]
  viability, T/C: 72%
[14]
  viability, T/C: 98.8%
[15]
  viability, T/C: 97.7%
[16]
  viability, T/C: 63.9%
[17]
  viability, T/C: 78.3%
[18]
  viability, T/C: 102%
[19]
  viability, T/C: 49.7%
[20]
  viability, T/C: 58.7%
[21]
  viability, T/C: 73.8%
[22]
  viability, T/C: 56.7%
[23]
  viability, T/C: 54.2%
[24]
  viability, T/C: 48.3%
[25]
  viability, T/C: 0.66%
[26]
  viability, T/C: 0.41%
[27]
  viability, T/C: 0.4%
[28]
  viability, T/C: 1.18%
[29]
  viability, T/C: 0.36%
[30]
  viability, T/C: 0.51%

## COc1cc(Nc2ncc3c(n2)-c2ccc(Cl)cc2C(c2c(F)cccc2OC)=NC3)ccc1C(=O)O + C=CC(=O)N1CCN(c2nc(OCC3CCCN3C)nc3c2CCN(c2cccc4cccc(C)c24)C3)CC1CC#N
Second compound 0.0316 µM
  IC50: > 10000 nM
Second compound 0.1 µM
  IC50: > 10000 nM
Second compound 0.316 µM
  IC50: > 10000 nM
Second compound 1 µM
  IC50: > 10000 nM
Second compound 3.16 µM
  IC50: > 10000 nM
[31]
  viability, T/C: 104%
[32]
  viability, T/C: 87.2%
[33]
  viability, T/C: 97.3%
[34]
  viability, T/C: 90.3%
[35]
  viability, T/C: 74.6%
[36]
  viability, T/C: 98%
[5]
  viability, T/C: 89.1%
[6]
  viability, T/C: 82.2%
[37]
  viability, T/C: 102%
[38]
  viability, T/C: 78.8%
[39]
  viability, T/C: 90.5%
[40]
  viability, T/C: 130%
[11]
  viability, T/C: 105%
[12]
  viability, T/C: 89.9%
[41]
  viability, T/C: 63.2%
[42]
  viability, T/C: 75%
[43]
  viability, T/C: 82.5%
[44]
  viability, T/C: 111%
[17]
  viability, T/C: 103%
[18]
  viability, T/C: 80.8%
[45]
  viability, T/C: 66.8%
[46]
  viability, T/C: 69.2%
[47]
  viability, T/C: 99.8%
[48]
  viability, T/C: 110%
[23]
  viability, T/C: 74.5%
[24]
  viability, T/C: 83%
[49]
  viability, T/C: 75.3%
[50]
  viability, T/C: 77.2%
[51]
  viability, T/C: 109%
[52]
  viability, T/C: 74.3%

## CC1(C)CCC(CN2CCN(c3ccc(C(=O)NS(=O)(=O)c4ccc(NCC5CCOCC5)c([N+](=O)[O-])c4)c(Oc4cnc5[nH]ccc5c4)c3)CC2)=C(c2ccc(Cl)cc2)C1 + C=CC(=O)N1CCN(c2nc(OCC3CCCN3C)nc3c2CCN(c2cccc4cccc(C)c24)C3)CC1CC#N
Second compound 0.0316 µM
  IC50: 8770 nM
Second compound 0.1 µM
  IC50: > 10000 nM
Second compound 0.316 µM
  IC50: > 10000 nM
Second compound 1 µM
  IC50: 3450 nM
Second compound 3.16 µM
  IC50: 1300 nM
[31]
  viability, T/C: 86.4%
[32]
  viability, T/C: 92.8%
[33]
  viability, T/C: 76.3%
[34]
  viability, T/C: 88.1%
[35]
  viability, T/C: 87.9%
[36]
  viability, T/C: 45.3%
[5]
  viability, T/C: 94.8%
[6]
  viability, T/C: 88.8%
[37]
  viability, T/C: 97%
[38]
  viability, T/C: 97.3%
[39]
  viability, T/C: 93.9%
[40]
  viability, T/C: 72.5%
[11]
  viability, T/C: 102%
[12]
  viability, T/C: 87%
[41]
  viability, T/C: 69.6%
[42]
  viability, T/C: 106%
[43]
  viability, T/C: 68.7%
[44]
  viability, T/C: 57.9%
[17]
  viability, T/C: 76.8%
[18]
  viability, T/C: 75.6%
[45]
  viability, T/C: 87.2%
[46]
  viability, T/C: 69%
[47]
  viability, T/C: 53.4%
[48]
  viability, T/C: 17.6%
[23]
  viability, T/C: 83%
[24]
  viability, T/C: 67%
[49]
  viability, T/C: 70.6%
[50]
  viability, T/C: 64.7%
[51]
  viability, T/C: 0.7%
[52]
  viability, T/C: 0.42%

## COc1cc(Nc2ncc3c(n2)-c2ccc(Cl)cc2C(c2c(F)cccc2OC)=NC3)ccc1C(=O)O + CC1OCC2(CCN(c3cnc(Sc4ccnc(N)c4Cl)c(N)n3)CC2)C1N
Second compound 0.1 µM
  IC50: > 10000 nM
Second compound 0.316 µM
  IC50: > 10000 nM
Second compound 1 µM
  IC50: > 10000 nM
Second compound 3.16 µM
  IC50: 31.6 nM
Second compound 10 µM
  IC50: > 10000 nM
[5]
  viability, T/C: 84.6%
[6]
  viability, T/C: 67.9%
[37]
  viability, T/C: 77.1%
[38]
  viability, T/C: 63.4%
[39]
  viability, T/C: 62%
[40]
  viability, T/C: 73.3%
[11]
  viability, T/C: 69.3%
[12]
  viability, T/C: 62.8%
[41]
  viability, T/C: 88.1%
[42]
  viability, T/C: 75.7%
[43]
  viability, T/C: 63%
[44]
  viability, T/C: 89%
[17]
  viability, T/C: 60.4%
[18]
  viability, T/C: 58.7%
[45]
  viability, T/C: 57.9%
[46]
  viability, T/C: 49.7%
[47]
  viability, T/C: 66.5%
[48]
  viability, T/C: 111%
[23]
  viability, T/C: 55.4%
[24]
  viability, T/C: 58%
[49]
  viability, T/C: 45.7%
[50]
  viability, T/C: 42.9%
[51]
  viability, T/C: 71.2%
[52]
  viability, T/C: 71.1%
[29]
  viability, T/C: 73%
[30]
  viability, T/C: 48.9%
Second compound 10 µM, first compound 0.316 µM
  viability, T/C: 49.5%
Second compound 10 µM, first compound 1 µM
  viability, T/C: 53.4%
Second compound 10 µM, first compound 3.16 µM
  viability, T/C: 74.9%
Second compound 10 µM, first compound 10 µM
  viability, T/C: 78%

## CC(=O)Nc1cccc(-n2c(=O)n(C3CC3)c(=O)c3c(Nc4ccc(I)cc4F)n(C)c(=O)c(C)c32)c1 + COc1cc2nc(C)nc(NC(C)c3cc(N)cc(C(F)(F)F)c3)c2cc1OC1CCOC1
Second compound 0.1 µM
  IC50: 2.46 nM
Second compound 0.316 µM
  IC50: 2.01 nM
Second compound 1 µM
  IC50: 1.01 nM
Second compound 3.16 µM
  IC50: 0.275 nM
Second compound 10 µM
  IC50: 0.203 nM
Second compound 0.1 µM, first compound 0.0001 µM
  viability, T/C: 83.3%
[1]
  viability, T/C: 74.2%
[2]
  viability, T/C: 65%
[3]
  viability, T/C: 39.6%
[4]
  viability, T/C: 36.1%
[5]
  viability, T/C: 12.5%
Second compound 0.316 µM, first compound 0.0001 µM
  viability, T/C: 64.8%
[7]
  viability, T/C: 85.2%
[8]
  viability, T/C: 73.8%
[9]
  viability, T/C: 34.7%
[10]
  viability, T/C: 24.2%
[11]
  viability, T/C: 13.8%
Second compound 1 µM, first compound 0.0001 µM
  viability, T/C: 72.2%
[13]
  viability, T/C: 59.3%
[14]
  viability, T/C: 53.1%
[15]
  viability, T/C: 33.6%
[16]
  viability, T/C: 18.5%
[17]
  viability, T/C: 11%
Second compound 3.16 µM, first compound 0.0001 µM
  viability, T/C: 67.8%
[19]
  viability, T/C: 46.3%
[20]
  viability, T/C: 30.6%
[21]
  viability, T/C: 27.7%
[22]
  viability, T/C: 11.9%
[23]
  viability, T/C: 8.2%
Second compound 10 µM, first compound 0.0001 µM
  viability, T/C: 69.2%
[25]
  viability, T/C: 32.2%
[26]
  viability, T/C: 31.9%
[27]
  viability, T/C: 6.2%
[28]
  viability, T/C: 4.93%
[29]
  viability, T/C: 3.59%
